The test system of data set [1] is wounds such as lacerations. Description: Lacerations treated with continuous topical T-3 or TriAc. The settings on record: continuous topical application, in approximately three days. In kind it is in vivo, human.
Data set [2] has as its system deep dermal pressure ulcer. Description: TriAc cream on a deep dermal pressure ulcer. In kind it is in vivo, human. From the text:
The patient was a active triathlete who had developed a bicycle seat ulcer which was a persistent fissure running from coccyx almost to the anus. The deep dermal pressure ulcer resulted from pressure due to a bicycle seat. This pressure injury frequently was oozing and was generally moist. The fissure was 1-2 mm wide and 2-3 mm deep. It was resistant to a variety of over the counter steroid and anti-fungal creams and lanolin. […] The cream was applied for 4 treatments on an every other day basis, using barely enough to treat the area about 20 cm^2, sometimes every third day. […] Skin has remained intact for close to 6 months. The dermal ulcer in this example was non healing until the cream was used on an intermittent basis

Data set [3] concerns cellulite and subcutaneous fat. In words: TriAc cream before exercise for cellulite. Format: in vivo, human. The conditions noted are these: after twelve applications. On the procedure: TriAc-containing creams were produced by dissolving TriAc in a suitable solvent and adding it to a cream base. […] TriAc could also be added to the oil phase of a water in oil or a oil in water cream base, or charged in a solid lipid nanoparticle, or applied as a liposome, or a matrix patch as is known in the art.
The cream was only applied before exercise. More specifically, application occurred between 30 minutes and 2 hours before mild exercise. The mild exercise involved the underlying musculature, and included long walks, jogging, or gym exercises involving light resistance exercises, or stairmasters, treadmills and the like.
The amount of cream applied was always less than 5 ml, just sufficient to cover the area, usually less than 2 ml. […] For most of the applications, the amount of cream applied was less than 3 ml and usually less than 1.5 ml. In these applications, less than 0.4 mg was applied and as little as 80 μg was applied in at least some of the applications. Exercise occurred one to three times a week. Consequently, the cream was only applied one to three times a week. Two grams of cream, approximately 2 mls, was sufficient to cover the buttocks, back of thighs, and anterior waist area.

The test system of data set [4] is thyroid hormone receptor TRα or β. The settings on record: cited from earlier work.
Data set [5] concerns TSH. The conditions noted are these: cited from earlier work.
The subject of data set [6] is lateral hip fat deposits. Description: TriAc cream before exercise for lateral hip fat deposits. Format: in vivo, human. From the text: A non obese person who ran 20 miles a week had lateral hip fat deposits which were resistant to any change.
For data set [7], the system named is second degree partial thickness scald burn. In words: TriAc cream applied intermittently to a scalding burn in a burn patient. Format: in vivo, human. On the procedure:
The water content was 65 to 75%, with approximately 30% solids. The semi solid cream formulation includes water, emulsifier, aloe vera, and less than 1% of d-tocopherol acetate or equivalent, panthenol, and retinyl palmitate.
On scalding burn day 0, ice was applied all night. The wound appeared as a large reddish area approximately 15 by 30 cm, with an area of white skin approximately 10 by 10 cm. The cream was applied to the entire area in an amount of much less than 1 gm (less than 80 μg per 400 cm^2) on the evening of Day 1, 24 hours post burn. The worst blistering and numbness was over the whitish area. Over the next 48 hours, the wound became somewhat less painful and the white area started to become pink and then red. The outer area extending over the knee remained red. This burn was therefore a split thickness second degree burn with areas of third degree burn.
The cream was applied again on the evening of Day 3, 72 hours post burn, only to a small area of most burned blistered skin over the original whitish area. […] Prior to application of the cream, the entire area was brilliantly red.
The cream was applied again on the evening of Day 4 over the entire area during this application. […] The entire area of the burn now had brownish epidermis in the process of being sloughed. […] FIGS. 1 and 2 are separated by approximately 36 hours.
This is six 24 hour periods from the time of the burn. […] The outline of the burn injury can clearly be seen by examining the margins of the wound.

The test system of data set [8] is TSH. The conditions noted are these: topically applied, humans; cited from earlier work.
Data set [9] has as its system rat. The settings on record: cited from earlier work.

For `O=C(O)Cc1cc(I)c(Oc2ccc(O)c(I)c2)c(I)c1` [TriAc, [4-(4-hydroxy-3-iodophenoxy)-3,5-diiodophenyl]acetic acid], the signs of inflammation result in data set [1] is “increased signs of inflammation”. In addition, the “healing of the ulcer” value in data set [2] (0.006% cream, 4 treatments every other day, over the next few weeks) is reported as “substantial healing”. In addition, in [2] (after treatment with 0.006% cream), the “time skin has remained intact” value is given as ~6 months. Also, the cellulite result in data set [3] (8 to 16 mg TriAc per 100 ml, before exercise) is “little evidence of cellulite remained”. In addition, the “contour of the buttocks” value in [3] was “smaller and smoother”. In data set [4], the “potency as thyroid hormone agonist” value is recorded as “potency about that of T-3” and the selectivity in binding result was “slightly Beta selective”. For the same molecule, the “transient change of TSH levels” value in [5] (350 ug oral, over a few hour time period) is reported as 30%. For the same molecule, the “minimum oral dosage which transiently changes TSH levels” value in data set [5] (oral, human) was 350 µg. The “change of fat deposits” value in [6] (9 mg TriAc per 100 ml base, 1 to 3 times a week before exercise, for 2 to 3 weeks) is reported as “Little change”. Also, in data set [6] (after 5 weeks of application), the fat deposits result is listed as “could barely be discerned”. Besides, the “pain in the small treated area” value in data set [7] (24 hours after Day 3 application) is listed as “greatly diminished”. In [7] (about 1/20th to 1/40th of a normal daily replacement dose, intermittent), the “increase in healing rate” value is reported as “greater than 100%”. Besides, the pigmentation or scar entry in data set [7] (after 1.5 years) is listed as “no pigmentation or scar”. Further, the pain result in data set [7] (after application over entire area on Day 4) is given as “All pain was resolved overnight”. Also, the erythema and tenderness result in data set [7] (applied Day 3 to a small area, only where applied) is “decrease in erythema and tenderness”. Moreover, the “healing rate of a burn” value in data set [7] (applied twice, less than 80 μg per 400 cm^2, versus time course in medical literature) is “approximately doubled the healing rate”. Besides, the “effect of the first application” value in data set [7] (cream applied to entire area on Day 1, observed over next 48 hours) was “no visible or other obvious indications that the first application had any effect”. In addition, the “signs of inflammation or infection in the wound” value in data set [7] (day 5) was “no signs of inflammation or infection”. In addition, the “re-epithelialization of the skin” value in [7] (day 5, 20 hours after second application to entire area) was “virtually completely re-epithelialized”. Moreover, the “time to complete re-epithelialization” value in data set [7] (post scald second degree partial thickness burn) is “five to six 24 hour periods”. Also, in data set [7] (prior art 19 days), the “healing time versus average prior art healing time” value is “fourteen days less than the average prior art healing time of 19 days”. Moreover, in [8], the “effect on TSH levels or other thyroid hormone function tests” value is “no effect on TSH levels”. Also, the “amount needed to make a 200 gm rat hyperthyroid” value in data set [9] is “approximately 7 micrograms”.

Values taken from patent US20100047332A1, “Treatments for burns using thyroid hormone compound in a human” (priority 2005, published 2010).
